Reference: publication PMC6456411 (Angewandte Chemie (International ed. in English), 2019)
Like-named read-outs stand apart in the source and are kept apart here.

How the values were obtained:
[1] = system: Saos-2 cells in 3D culture; assay: Cytotoxicity of chemotherapy drugs on 3D cell spheroids of Saos-2; assay type: cell-based
[2] = system: Saos-2 cells; assay: Cytotoxicity of chemotherapy drugs on 2D cell culture of Saos-2
[3] = system: co-culture of HS-5 and Saos-2 cells, 3D cell spheroids; assay: Cytotoxicity of chemotherapy drugs on co-cultured 3D spheroids; assay type: cell-based; conditions: co-culture 3D cell spheroids, 24 h; for cell toxicity: within the tested concentrations
[4] = system: co-culture of HS-5 and Saos-2 cells, 2D cell sheets; assay: Cytotoxicity of chemotherapy drugs on co-cultured 2D cell sheets; assay type: cell-based; conditions: co-culture 2D cell sheets, 24 h; for cell toxicity: within the tested concentrations
[5] = system: co-culture of HS-5 and Saos-2 cells; assay: Spheroid formation and live-dead assay in co-culture of HS-5 and Saos-2 cells; assay type: cell-based; conditions: treated for 48 h; 1P:2 300 μM, ratio 1:1
[6] = Homo sapiens, SAOS-2, 48 h, read-out: IC50 against Saos-2 cells

CC(=O)O[C@H]1C(=O)[C@@]2(C)[C@H]([C@H](OC(=O)c3ccccc3)[C@]3(O)C[C@H](OC(=O)[C@H](O)[C@@H](NC(=O)c4ccccc4)c4ccccc4)C(C)=C1C3(C)C)[C@]1(OC(C)=O)CO[C@@H]1C[C@@H]2O [taxol]
cell viability ([1]; Saos-2 3D spheroids, 40 nM, 48 h): 94.25% | cell viability ([2]; Saos-2 2D sheet, 40 nM, 48 h): 60.84%

N.N.[Cl][Pt][Cl] [cisplatin]
cell death ([3]; 50 nM): hardly causes cell death | cell toxicity [3]: little toxicity | IC50 ([1]; read-out: IC50 against Saos-2 cells, 3D culture, 48 h): 33.3 µM | IC50 ([1]; read-out: increase of IC50 in 3D culture, Saos-2 cells, 48 h, 3D versus 2D): 12 µM | cell killing ([4]; 50 nM): kills about half of cells | cell toxicity [4]: dosage dependent cell toxicity

CN[C@H](CC(C)C)C(=O)N[C@H]1C(=O)N[C@@H](CC(N)=O)C(=O)N[C@H]2C(=O)N[C@H]3C(=O)N[C@H](C(=O)N[C@H](C(=O)O)c4cc(O)cc(O)c4-c4cc3ccc4O)[C@H](O)c3ccc(c(Cl)c3)Oc3cc2cc(c3O[C@@H]2O[C@H](CO)[C@@H](O)[C@H](O)[C@H]2O[C@H]2C[C@](C)(N)[C@H](O)[C@H](C)O2)Oc2ccc(cc2Cl)[C@H]1O [compound 2, vancomycin]
influence on cytotoxicity of chemotherapy drugs against Saos-2 cells ([2]; co-incubating with chemotherapy drugs): hardly influence their cytotoxicity | morphology of co-cultured HS-5 and Saos-2 cells [5]: remain a 2D cell sheet

COc1cccc2c1C(=O)c1c(O)c3c(c(O)c1C2=O)C[C@@](O)(C(=O)CO)C[C@@H]3O[C@H]1C[C@H](N)[C@H](O)[C@H](C)O1 [Dox, doxorubicin]
cell death ([3]; 5 μM): hardly causes cell death | cell toxicity [3]: little toxicity | IC50 [1, 6]: > 6 µM | increase of IC50 in 3D culture than 2D culture ([1]; Saos-2 cells, 48 h): more than 3 times | IC50 [2, 6]: 1.4 µM | cell killing ([4]; 5 μM): kills about half of cells | cell toxicity [4]: dosage dependent cell toxicity
